Data as given in patent US9290551B2, “Compounds for treating papilloma virus infection” (NanoVir, LLC, priority 2012, dated 2016).

Experiments:
Format in all cases: cell-based, Human papilloma virus
HPV 16 = HPV 16 episome DNA levels in W12E cells by Q-PCR (Taqman); conditions: for IC50: effective (pseudo) IC50, 50% reduction in HPV DNA relative to vehicle (0.1% DMSO), read-out: HPV-16 IC50
Protocol: Cells maintaining HPV 16 DNA were cultured for 72 hours in the presence of cidofovir, interferon γ or polyamide. Viral DNA was then quantified using real-time PCR and compared to vehicle (DMSO)-treated control cultures.
Compounds were initially tested for effects on HPV 16 episome DNA levels in W12E cells by Q-PCR (Taqman™) over 3 concentration ranges (0.1, 1 and 10 μM). W12E cells are a cervical keratinocyte cell line originally identified by M. Stanley (Cambridge University), and later optimized and provided by P. Lambert (U. of Wisconsin). […] In all cases (initial tests and follow-up IC50 tests), dose testing was performed in triplicate. […] Furthermore, all experiments were conducted in triplicate, multiple times. The data were then combined, pseudo or effective IC50 values calculated, and variance determined to reveal the fit of the data to the model and its reliability.
Keratinocytes that maintain HPV 16 episomes were treated with increasing concentrations of polyamides.

HPV31 = HPV31 DNA levels in keratinocytes by real-time PCR; conditions: effective (pseudo) IC50
Protocol: (§1) Human keratinocytes, including those maintaining HPV episomes, are cultured on mitomycin C-treated J2 3T3 cells in media containing three parts Dulbecco's modified Eagle medium (DMEM) and one part F12 media, our modification of published methods (Rheinwald and Green, 1975). Media (E Media) is supplemented with 0.4 μg/mL hydrocortisone, 10 ng/mL cholera toxin, 5 μg/mL insulin, 24 μg/mL adenine, 5 μg/mL transferrin, […] (T3), 10 ng/mL epidermal growth factor (EGF), 1% penicillin-streptomycin, and 5% fetal bovine serum (FBS). All cells are passaged at 70% confluency at a split ratio of 1:5.
(§2) Polyamides for HPV 18 are dissolved at 10 mM in 100% DMSO and diluted with H2O to 1 mM. Polyamides are added to cells in E media at final concentrations of 0.1-10 μM, with final DMSO concentrations of 0.1%. As controls, cells are incubated with normal E media and E media containing the “vehicle” 0.1% DMSO. The HPV DNA levels are then quantified according to previously published procedures (Garner-Hamrick and Fisher, Virology, 301, 334-41, 2002). After incubation, cells are harvested from the plates by either trypsinization or direct lysis with proteinase K digestion buffer (PK buffer: 100 mM NaCl, 10 mM Tris pH 8, 25 mM EDTA, 0.5% SDS, 0.1 mg/mL proteinase K). Trypsinized cells are counted on a hemocytometer and pelleted by centrifugation. Episomal HPV is isolated by the Hirt method (Hirt, 1967) and cell pellets are lysed in 0.6% SDS with 10 mM EDTA. NaCl is next added to a final concentration of 1 M. Following an overnight incubation at 4° C., precipitates containing the chromosomal DNA are spun down and episomal DNA precipitated by the addition of isopropanol. Cells lysed directly in PK buffer are transferred to microfuge tubes and incubated at 50° C. for 2 h. Lysates are then extracted with phenol/chloroform/isoamyl alcohol and spun through a phase lock gel (Eppendorf, Hamburg, Germany). Total DNA is then precipitated with 0.3 M NaOAc and 2.5 vol. ethanol and resuspended in Tris-EDTA (TE) buffer.
HPV31 primers-probe sets for PCR were also designed within the L1 gene:
(§3) All primers and probes are synthesized and HPLC purified by Applied Biosystems (Foster City, Calif.). The HPV probes are labeled with the 5′ reporter dye FAM (6-carboxy-fluorescein) and the 3′ quencher dye TAMRA (6-carboxytetramethyl-rhodamine). A standard curve is generated using a range of 10^8 to 10 copies/reaction of cloned, genomic HPV31 or HPV18 DNA using the following formula: (1.82×10^15)(μg/μL stock DNA)/(length in base pairs)(2)=copies/μL stock DNA. PCR reactions contain final concentrations of 1× Universal Master Mix (PE Applied Biosystems), 200 nM of each primer, and 250 nM probe (PE Applied Biosystems) in a reaction volume of 25 μL. Each Hirt-isolated DNA sample is analyzed in triplicate reactions for episomal HPV. Copies/reaction are determined from the standard curve, and copies/cell determined according to the following formula: (copies/reaction)×(DNA dilution)/(total # cells)=copies/cell.

HPV18 = HPV18 DNA levels in keratinocytes by real-time PCR; conditions: effective (pseudo) IC50
Protocol: as §1, §2
Viral DNA levels are next quantified according to variations on our previously published methods (Garner-Hamrick and Fisher, Virology, 301, 334-41, 2002). Quantitative PCR is performed using Real-Time PCR technology on an ABI PRISM 7700 Sequence Detector. All primers and probes were designed using Primer Express 1.0 (ABI). For HPV 18, PCR primer-probe sets were designed within the L1 gene:
as §3

Molecule	IC50 (HPV 16)	IC50 (HPV31)	IC50 (HPV18)	effect on absolute HPV 16 DNA levels (HPV 16; higher doses, in some experiments, FIG. 3)
CN(CCCN)CCCNC(=O)CCNC(=O)c1cc(NC(=O)c2cc(NC(=O)c3cc(NC(=O)CCNC(=O)c4cc(NC(=O)c5cc(NC(=O)c6cc(NC(=O)CCNC(=O)c7cc(NC(=O)c8cc(NC(=O)[C@@H](CCN)NC(=O)c9cc(NC(=O)c%10cc(NC(=O)CCNC(=O)c%11nc(NC(=O)c%12cc(NC(=O)c%13cc(NC(=O)CCNC(=O)c%14cc(NC(=O)c%15cc(NC(=O)c%16nccn%16C)cn%15C)cn%14C)cn%13C)cn%12C)cn%11C)cn%10C)cn9C)cn8C)cn7C)cn6C)cn5C)cn4C)cn3C)cn2C)cn1C [Polyamide 1049, ImPPβPPIβPPγNH2PPβPPPβPPPβTa]	0.1 to 1 µM	≥ 1 µM	0.1 to 1 µM	–
ImPPPβPPβPPPγPPPβPPPβPPPβDp [Polyamide 1004]	0.1 to 1 µM	0.1 to 1 µM	≤ 0.1 µM	nearly complete elimination of detectable viral DNA
CN(C)CCCNC(=O)CCNC(=O)c1cc(NC(=O)c2cc(NC(=O)c3cc(NC(=O)CCNC(=O)c4cc(NC(=O)c5cc(NC(=O)c6cc(NC(=O)CCNC(=O)c7cc(NC(=O)c8cc(NC(=O)[C@H](N)CCNC(=O)c9cc(NC(=O)c%10cc(NC(=O)CCNC(=O)c%11nc(NC(=O)c%12cc(NC(=O)c%13cc(NC(=O)CCNC(=O)c%14cc(NC(=O)c%15cc(NC(=O)c%16nccn%16C)cn%15C)cn%14C)cn%13C)cn%12C)cn%11C)cn%10C)cn9C)cn8C)cn7C)cn6C)cn5C)cn4C)cn3C)cn2C)cn1C [Polyamide 1066, ImPPβPPIβPPγNH2PPβPPPβPPPβDp]	0.1 to 1 µM	0.1 to 1 µM	0.1 to 1 µM	–
CN(C)CCCNC(=O)CCNC(=O)c1cc(NC(=O)CCNC(=O)c2cc(NC(=O)c3cc(NC(=O)c4cc(NC(=O)CCNC(=O)c5cc(NC(=O)c6cc(NC(=O)CCCNC(=O)CCNC(=O)c7cc(NC(=O)c8cc(NC(=O)CCNC(=O)c9cc(NC(=O)c%10cc(NC(=O)c%11cc(NC(=O)c%12nccn%12C)cn%11C)cn%10C)cn9C)cn8C)cn7C)cn6C)cn5C)cn4C)cn3C)cn2C)cn1C [Polyamide 1022, ImPPPβPPβγPPβPPPβPβDp]	> 1 µM	≥ 1 µM	–	–
CN(C)CCCNC(=O)CCNC(=O)c1cc(NC(=O)CCNC(=O)c2cc(NC(=O)c3cc(NC(=O)c4cc(NC(=O)CCNC(=O)c5cc(NC(=O)c6cc(NC(=O)[C@H](N)CCNC(=O)CCNC(=O)c7cc(NC(=O)c8cc(NC(=O)CCNC(=O)c9cc(NC(=O)c%10cc(NC(=O)c%11cc(NC(=O)c%12nccn%12C)cn%11C)cn%10C)cn9C)cn8C)cn7C)cn6C)cn5C)cn4C)cn3C)cn2C)cn1C [Polyamide 1029, ImPPPβPPβγNH2PPβPPPβPβDp]	0.1 to 1 µM	0.1 to 1 µM	≥ 1 µM	–
CN(CCCN)CCCNC(=O)CCNC(=O)CCNC(=O)c1cc(NC(=O)c2cc(NC(=O)c3cc(NC(=O)CCNC(=O)c4cc(NC(=O)c5cc(NC(=O)c6cc(NC(=O)C(N)CCNC(=O)c7cc(NC(=O)c8cc(NC(=O)c9cc(NC(=O)CCNC(=O)c%10cc(NC(=O)c%11cc(NC(=O)c%12cc(NC(=O)c%13nccn%13C)cn%12C)cn%11C)cn%10C)cn9C)cn8C)cn7C)cn6C)cn5C)cn4C)cn3C)cn2C)cn1C (stereo not drawn) [Polyamide 1033, ImPPPβPPPγNH2PPPβPPPββTa]	> 1 µM	≥ 1 µM	–	–
CN(CCCN)CCCNC(=O)CCNC(=O)c1cc(NC(=O)CCNC(=O)c2cc(NC(=O)c3cc(NC(=O)c4cc(NC(=O)CCNC(=O)c5cc(NC(=O)c6cc(NC(=O)CCCNC(=O)CCNC(=O)c7cc(NC(=O)c8cc(NC(=O)CCNC(=O)c9cc(NC(=O)c%10cc(NC(=O)c%11cc(NC(=O)c%12nccn%12C)cn%11C)cn%10C)cn9C)cn8C)cn7C)cn6C)cn5C)cn4C)cn3C)cn2C)cn1C [Polyamide 1027, ImPPPβPPβγPPβPPPβPβTa]	0.1 to 1 µM	0.1 to 1 µM	0.1 to 1 µM	–
ImPPβPPPγNH2PPβPPPPβDp [Polyamide 1024]	> 1 µM	0.1 to 1 µM	≥ 1 µM	–
ImPPPβPPPγNH2PPPβPPPββDp [Polyamide 1026]	0.1 to 1 µM	0.1 to 1 µM	–	–
CN(CCCN)CCCNC(=O)c1cc(NC(=O)c2cc(NC(=O)c3cc(NC(=O)c4cc(NC(=O)c5cc(NC(=O)CCNC(=O)c6cc(NC(=O)c7cc(NC(=O)CCCNC(=O)c8cc(NC(=O)c9cc(NC(=O)c%10cc(NC(=O)CCNC(=O)c%11cc(NC(=O)c%12cc(NC(=O)c%13nccn%13C)cn%12C)cn%11C)cn%10C)cn9C)cn8C)cn7C)cn6C)cn5C)cn4C)cn3C)cn2C)cn1C [Polyamide 1069, ImPPβPPPγPPβPPPPPTa]	0.1 to 1 µM	0.1 to 1 µM	≥ 1 µM	–
CN(C)CCCNC(=O)CCNC(=O)c1cc(NC(=O)c2cc(NC(=O)c3cc(NC(=O)CCNC(=O)c4cc(NC(=O)c5cc(NC(=O)c6cc(NC(=O)CCNC(=O)c7cc(NC(=O)c8cc(NC(=O)CCCNC(=O)c9cc(NC(=O)c%10cc(NC(=O)CCNC(=O)c%11nc(NC(=O)c%12cc(NC(=O)c%13cc(NC(=O)CCNC(=O)c%14cc(NC(=O)c%15cc(NC(=O)c%16nccn%16C)cn%15C)cn%14C)cn%13C)cn%12C)cn%11C)cn%10C)cn9C)cn8C)cn7C)cn6C)cn5C)cn4C)cn3C)cn2C)cn1C [Polyamide 1040, ImPPβPPIβPPγPPβPPPβPPPβDp]	0.1 to 1 µM	0.1 to 1 µM	0.1 to 1 µM	–
CN(CCCN)CCCNC(=O)CCNC(=O)c1cc(NC(=O)CCNC(=O)c2cc(NC(=O)c3cc(NC(=O)c4cc(NC(=O)CCNC(=O)c5cc(NC(=O)c6cc(NC(=O)[C@H](N)CCNC(=O)CCNC(=O)c7cc(NC(=O)c8cc(NC(=O)CCNC(=O)c9cc(NC(=O)c%10cc(NC(=O)c%11cc(NC(=O)c%12nccn%12C)cn%11C)cn%10C)cn9C)cn8C)cn7C)cn6C)cn5C)cn4C)cn3C)cn2C)cn1C [Polyamide 1032, ImPPPβPPβγNH2PPβPPPβPβTa]	0.1 to 1 µM	0.1 to 1 µM	–	–
CN(C)CCCNC(=O)CCNC(=O)c1cc(NC(=O)c2cc(NC(=O)c3cc(NC(=O)c4cc(NC(=O)CCNC(=O)c5cc(NC(=O)c6cc(NC(=O)CCCNC(=O)c7cc(NC(=O)c8cc(NC(=O)c9cc(NC(=O)CCNC(=O)c%10cc(NC(=O)c%11cc(NC(=O)c%12nccn%12C)cn%11C)cn%10C)cn9C)cn8C)cn7C)cn6C)cn5C)cn4C)cn3C)cn2C)cn1C [Polyamide 1023, ImPPβPPPγPPβPPPPβDp]	> 1 µM	≥ 1 µM	–	–
CN(CCCN)CCCNC(=O)CCNC(=O)c1cc(NC(=O)c2cc(NC(=O)c3cc(NC(=O)CCNC(=O)c4cc(NC(=O)c5cc(NC(=O)c6cc(NC(=O)CCNC(=O)c7cc(NC(=O)c8cc(NC(=O)CCCNC(=O)c9cc(NC(=O)c%10cc(NC(=O)CCNC(=O)c%11nc(NC(=O)c%12cc(NC(=O)c%13cc(NC(=O)CCNC(=O)c%14cc(NC(=O)c%15cc(NC(=O)c%16nccn%16C)cn%15C)cn%14C)cn%13C)cn%12C)cn%11C)cn%10C)cn9C)cn8C)cn7C)cn6C)cn5C)cn4C)cn3C)cn2C)cn1C [Polyamide 1042, ImPPβPPIβPPγPPβPPPβPPPβTa]	–	≤ 0.1 µM	–	–
